Source: article PMC8347595, “N-Skatyltryptamines—Dual 5-HT6R/D2R Ligands with Antipsychotic and Procognitive Potential” (Molecules, 2021)
Where two headings read alike, the source gives them in different places.

Columns and labels:
5-HT6 = tested on: 5-HT6; parameters: method as in Dupuis et al. (2008) [31]; conditions: Figure 8; ref Dupuis et al. (2008) [31]; cited from earlier work
5-HT2AR = 5-HT2AR (Homo sapiens, UniProt P28223); test: Radioligand binding assay, [3H]-ketanserin displacement; parameters: host or cells: CHO-K1; membrane preparation; conditions: Table 1
D2R [1] = biological target: T1, D2R (Homo sapiens, UniProt P14416); test: Radioligand binding assay, [3H]-raclopride displacement
5-HT1AR = biological target: T2, 5-HT1AR (Homo sapiens, UniProt P08908); test: Radioligand binding assay, [3H]-8-OH-DPAT displacement
T2 sequence (P08908 1-422): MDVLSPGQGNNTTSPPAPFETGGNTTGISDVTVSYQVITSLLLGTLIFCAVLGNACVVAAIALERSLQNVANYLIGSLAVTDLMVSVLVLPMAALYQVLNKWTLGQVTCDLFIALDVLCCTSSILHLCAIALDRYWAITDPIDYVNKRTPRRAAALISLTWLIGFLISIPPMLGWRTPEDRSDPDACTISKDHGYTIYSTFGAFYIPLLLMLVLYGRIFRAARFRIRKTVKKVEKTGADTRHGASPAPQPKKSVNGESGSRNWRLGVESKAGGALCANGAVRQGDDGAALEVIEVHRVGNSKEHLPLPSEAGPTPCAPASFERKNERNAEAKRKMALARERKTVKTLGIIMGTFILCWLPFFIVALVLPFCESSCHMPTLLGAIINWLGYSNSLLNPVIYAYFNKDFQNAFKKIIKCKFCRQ

5-HT7R = 5-HT7R (Homo sapiens, UniProt P34969); test: Radioligand binding assay, [3H]-5-CT displacement
5-HT6R = 5-HT6R (Homo sapiens, UniProt P50406); test: Radioligand binding assay, [3H]-LSD displacement
Human Serotonin 5-HT6R = biological target: T3, Human Serotonin 5-HT6R (Homo sapiens, UniProt P50406); test: 5-HT6R functional assay, antagonistic mode (cAMP induced by 5-CT, 1321N1 cells); type: cell-based
T3 construct: host or cells: 1321N1 (frozen recombinant cells)
Experimental: The properties of compounds to inhibit cAMP production induced by a 5-HT6R agonist 5-CT (1000 nM) was evaluated. Compounds were tested in triplicate at eight concentrations (10^−11–10^−4 M). The level of cAMP was measured using frozen recombinant 1321N1 cells expressing the Human Serotonin 5-HT6R (PerkinElmer). Total cAMP was measured using the LANCE cAMP Detection Kit (PerkinElmer), according to the manufacturer’s instructions. For quantification of cAMP levels, 2000 cells/well ([…]) were incubated with a mixture of compounds ([…]) for 30 min at room temperature in a 384-well white opaque microtiter plate. After incubation, the reaction was stopped and cells were lysed by the addition of […] of working solution ([…] ULight-anti-cAMP) for 1 h at room temperature. Time-resolved fluorescence resonance energy transfer (TR-FRET) was detected by an Infinite M1000 Pro (Tecan) using instrument settings from the LANCE cAMP Detection Kit manual. […] The agonistic properties of compounds were determined with an analogous procedure, but without stimulation with 5-CT [10, 36].

D2R [2] = biological target: T1, D2R; test: D2R functional assay, antagonist mode (cAMP, HEK293 cells); type: cell-based; parameters: expressed in transfected cells
Experimental: The supernatant was aspirated, and the cell pellet was resuspended in stimulation buffer (1 × HBSS, 5 mM HEPES, 0.5 mM IBMX, 0.1% BSA).
The functional properties of compounds were evaluated using the LANCE Ultra cAMP Detection Kit (PerkinElmer). D2 receptors in HEK293 cells are coupled to Gi subtype and decreased cAMP production. […] Each compound was tested in triplicate at eight concentrations (10^−11–10^−4 M).
For quantification of cAMP levels, cells (5 µL) were incubated with 5 µL mixture of compounds (tested ligand and forskolin with 100 nM quinpirole for antagonist binding mode) for 30 min at room temperature in 384-well white opaque microtiter plate (PerkinElmer). After incubation, the reaction was stopped and cells were lysed by the addition of 10 µL working solution (5 µL Eu-cAMP and 5 µL ULight-anti-cAMP). The assay plate was incubated for 1 h at room temperature. Time-resolved fluorescence resonance energy transfer (TR-FRET) signal was detected by an Infinite M1000 Pro (Tecan) using instrument settings from the LANCE Ultra cAMP Detection Kit manual.

[3] = Metabolic stability, incubation with mouse liver microsomes; type: in vitro ADME; conditions: MLMs, 50 µM, 2 h
Experimental: The murine liver microsomes (MLMs) were purchased from Sigma-Aldrich (St. Louis, MO, USA). To determine metabolic pathways, the tested compounds (50 µM) were incubated with 100 mM Tris-HCl buffer at 37 °C with MLMs (1 mg/mL) and NADPH Regeneration System for 2 h. Reactions were quenched with cold, pure methanol and mixtures were centrifuged 14,000 g for 15 min. The supernatants were analyzed using LCMS. The additional MS ion fragmentation of the product and the substrate were performed to determine the most probable structure of the metabolite.

in vitro = conditions: PAMPA, pH 7.4
CYP3A4 = biological target: T4, CYP3A4 (Homo sapiens, UniProt P08684); test: CYP3A4 P450-Glo luminescent assay; type: in vitro ADME; conditions: compared to ketoconazole; 0.01 to 25 µM
T4 construct: purchased Promega (Madison, WI, USA)
Experimental: The experiments were provided using commercially available luminescent CYP3A4 P450-Glo™ and CYP2D6 P450-Glo™ tests purchased from Promega (Madison, WI, USA). The enzymatic reactions were conducted in polystyrene, flat-bottom Nunc™ MicroWell™ 96-well microplates (Thermo Scientific, Waltham, MA, USA). The assays were carried out according to the procedures provided by the manufacturer, as described previously. Compounds were tested in triplicate at the final concentrations in a range from 0.01 to 25 µM for both isoforms of CYP450. The references of CYP3A4 and CYP2D6 inhibitors (ketoconazole and quinidine, respectively) were tested in a range from 0.001 to 10 µM. Tested compounds were incubated in 100 mM Tris-HCl buffer separately with CYP3A4 and CYP2D6 membranes and the NADPH Regeneration System for 30 min at room temperature in triplicate. The bioluminescent signal was measured after the addition of the Luciferin Detection Reagent by using a microplate reader EnSpire PerkinElmer (Waltham, MA, USA). Both reagents (NADPH Regeneration System and Luciferin Detection Reagent) were purchased from Promega (Madison, WI, USA).

HepG2 cell line = test: Hepatotoxicity assay, HepG2 viability; type: cell-based; conditions: 1 μM, 72 h
Experimental: To estimate the hepatotoxicity of compounds, the hepatoma HepG2 (ATCC® HB-8065TM) cell line was used according to previously described protocols. The CellTiter 96® AQueous Non-Radioactive Cell Proliferation Assay was obtained from Promega (Madison, WI, USA). The compounds were tested in quadruplicate at four concentrations (1–100 µM) for 72 h.

[4] = for permeability in words: PAMPA
[5] = read-out: pKi 5-HT2A (converted)
[6] = antagonistic mode, 5-CT 1000 nM, read-out: 5-HT6 Kb
[7] = antagonistic mode, 100 nM quinpirole, read-out: D2 Kb

T1 sequence (P14416 whole entry): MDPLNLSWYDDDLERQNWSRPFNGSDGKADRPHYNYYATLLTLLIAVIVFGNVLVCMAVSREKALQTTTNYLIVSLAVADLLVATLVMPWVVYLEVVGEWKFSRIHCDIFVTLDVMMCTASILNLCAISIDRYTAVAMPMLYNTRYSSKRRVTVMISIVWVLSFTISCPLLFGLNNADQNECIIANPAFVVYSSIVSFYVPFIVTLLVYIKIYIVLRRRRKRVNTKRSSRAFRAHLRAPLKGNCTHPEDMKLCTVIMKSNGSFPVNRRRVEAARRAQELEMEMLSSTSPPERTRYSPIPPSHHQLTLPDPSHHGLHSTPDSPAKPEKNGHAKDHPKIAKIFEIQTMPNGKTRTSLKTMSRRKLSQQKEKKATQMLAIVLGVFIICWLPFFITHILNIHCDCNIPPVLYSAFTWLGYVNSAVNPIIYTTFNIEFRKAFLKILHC
5-HT2AR, sequence (P28223 whole entry): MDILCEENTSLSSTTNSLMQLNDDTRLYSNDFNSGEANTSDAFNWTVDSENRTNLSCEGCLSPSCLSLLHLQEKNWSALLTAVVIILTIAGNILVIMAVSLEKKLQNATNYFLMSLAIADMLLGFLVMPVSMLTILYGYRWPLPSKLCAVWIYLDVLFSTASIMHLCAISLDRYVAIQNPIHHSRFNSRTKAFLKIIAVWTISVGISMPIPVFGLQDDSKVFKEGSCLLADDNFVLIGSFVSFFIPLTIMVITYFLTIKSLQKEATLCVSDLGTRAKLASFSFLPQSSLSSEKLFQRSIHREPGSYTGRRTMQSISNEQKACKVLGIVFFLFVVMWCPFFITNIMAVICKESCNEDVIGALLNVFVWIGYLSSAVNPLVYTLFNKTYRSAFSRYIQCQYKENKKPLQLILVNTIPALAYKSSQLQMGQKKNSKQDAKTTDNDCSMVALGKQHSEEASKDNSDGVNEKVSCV
5-HT7R, sequence (P34969 1-432): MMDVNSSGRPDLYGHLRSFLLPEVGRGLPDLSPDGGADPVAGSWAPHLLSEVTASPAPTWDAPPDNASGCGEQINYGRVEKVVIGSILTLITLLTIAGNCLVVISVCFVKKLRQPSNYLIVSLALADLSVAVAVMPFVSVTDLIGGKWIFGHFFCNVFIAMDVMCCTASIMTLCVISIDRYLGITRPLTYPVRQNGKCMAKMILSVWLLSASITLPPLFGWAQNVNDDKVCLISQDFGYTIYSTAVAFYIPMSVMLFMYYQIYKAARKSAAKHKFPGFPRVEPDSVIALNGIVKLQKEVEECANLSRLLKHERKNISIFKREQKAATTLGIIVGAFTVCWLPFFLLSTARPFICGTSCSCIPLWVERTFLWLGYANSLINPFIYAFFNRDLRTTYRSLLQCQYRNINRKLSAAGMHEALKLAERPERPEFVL
T3 sequence (P50406 whole entry): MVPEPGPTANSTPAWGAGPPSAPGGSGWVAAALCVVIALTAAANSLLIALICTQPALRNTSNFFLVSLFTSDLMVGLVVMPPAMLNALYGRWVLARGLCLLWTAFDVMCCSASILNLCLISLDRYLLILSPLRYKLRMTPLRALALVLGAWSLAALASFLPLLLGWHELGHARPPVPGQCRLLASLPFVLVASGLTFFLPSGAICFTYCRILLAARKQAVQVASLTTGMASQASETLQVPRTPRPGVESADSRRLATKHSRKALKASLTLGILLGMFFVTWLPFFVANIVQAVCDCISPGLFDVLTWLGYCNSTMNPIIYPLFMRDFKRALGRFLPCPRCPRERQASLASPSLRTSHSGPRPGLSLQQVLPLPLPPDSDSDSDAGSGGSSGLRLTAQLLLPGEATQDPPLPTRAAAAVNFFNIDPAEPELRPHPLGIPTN
5-HT6R, sequence (P50406 whole entry): as above
T4 sequence (P08684 whole entry): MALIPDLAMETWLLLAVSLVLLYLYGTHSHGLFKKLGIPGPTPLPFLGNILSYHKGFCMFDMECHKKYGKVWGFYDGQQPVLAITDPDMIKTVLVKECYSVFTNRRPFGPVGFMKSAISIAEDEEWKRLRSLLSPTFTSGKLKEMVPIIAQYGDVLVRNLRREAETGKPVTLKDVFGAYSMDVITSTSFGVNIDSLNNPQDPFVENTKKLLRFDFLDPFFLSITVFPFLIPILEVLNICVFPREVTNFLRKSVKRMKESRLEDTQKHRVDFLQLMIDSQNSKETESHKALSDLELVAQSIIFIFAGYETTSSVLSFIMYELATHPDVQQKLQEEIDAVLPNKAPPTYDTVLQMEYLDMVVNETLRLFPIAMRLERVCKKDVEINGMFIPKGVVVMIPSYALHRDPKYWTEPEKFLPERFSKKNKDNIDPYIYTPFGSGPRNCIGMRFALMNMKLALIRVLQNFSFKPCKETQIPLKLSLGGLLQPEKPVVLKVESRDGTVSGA

Row | SMILES | Ki (5-HT2AR; [5]) | Ki (D2R [1]; pKi D2, Table 1) | Ki (5-HT1AR; pKi 5-HT1A, Table 1) | Ki (5-HT7R) | Ki (5-HT6R; pKi 5-HT6, Table 1) | other results
3 | Cc1ccc2[nH]cc(CCNCc3c[nH]c4ccccc34)c2c1 [Compound 2] | 562 nM | > 10000 nM | 692 nM | 2950 nM | 129 nM | 
4 | COc1ccc2[nH]cc(CCNCc3c[nH]c4ccccc34)c2c1 [Compound 3] |  |  | 155 nM | 562 nM | 117 nM | Ki (5-HT2AR; pKi 5-HT2A): 83.2 nM; pKi D2 (D2R [1]; Table 1): 6.49; Ki (5-HT1AR; Ki 5-HT1AR): 156 nM
5 | Clc1ccc2[nH]cc(CCNCc3c[nH]c4ccccc34)c2c1 [Compound 4] |  | 2450 nM |  |  | 107 nM | 
6 | Fc1cccc2c(CCNCc3c[nH]c4ccccc34)c[nH]c12 [Compound 6] | 380 nM | 2950 nM | 2750 nM | 10200 nM | 170 nM | Ki (5-HT6R; Ki 5-HT6, Figure 8): 168 nM
7 | Clc1cccc2c(CCNCc3c[nH]c4ccccc34)c[nH]c12 [Compound 7] | 631 nM | 11700 nM | 5130 nM | 25100 nM | 132 nM | Ki (5-HT6R; Ki 5-HT6, Figure 8): 133 nM
8 | Brc1cccc2c(CCNCc3c[nH]c4ccccc34)c[nH]c12 [Compound 8] | 776 nM | 3020 nM | 6030 nM | 20400 nM | 162 nM | Ki (5-HT6R; Ki 5-HT6, Figure 8): 161 nM
9 | Oc1ccc2[nH]cc(CNCCc3c[nH]c4ccccc34)c2c1 [Compound 9] | 1950 nM | 7590 nM | 2880 nM | 5130 nM | 2240 nM | 
10 | Fc1ccc2[nH]cc(CNCCc3c[nH]c4ccccc34)c2c1 [Compound 10] | 3470 nM | 8510 nM | 490 nM | 4790 nM | 407 nM | 
11 | Clc1ccc2[nH]cc(CNCCc3c[nH]c4ccccc34)c2c1 [Compound 11] | 3240 nM | 2090 nM | 676 nM | 3800 nM | 513 nM | 
12 | Ic1ccc2[nH]cc(CNCCc3c[nH]c4ccccc34)c2c1 [Compound 12] | 2340 nM | 2090 nM | 490 nM | 5130 nM | 457 nM | 
13 | Fc1ccc2c(CNCCc3c[nH]c4ccccc34)c[nH]c2c1 [Compound 13] |  | 302 nM |  | 18200 nM | 224 nM | Kb (Human Serotonin 5-HT6R): 30 nM; Ki (5-HT2AR; pKi 5-HT2A): 2570 nM; Ki (D2R [1]; Ki D2, Figure 8): 299 nM; Ki (5-HT1AR): 1350 nM; EC50 (D2R [2]): 91 nM; Kb (D2R [2]): 91 nM; Ki (5-HT6R; Ki 5-HT6, Figure 8): 225 nM
14 | Clc1ccc2c(CNCCc3c[nH]c4ccccc34)c[nH]c2c1 [Compound 14] | 468 nM | 123 nM | 1070 nM | 15800 nM | 89.1 nM | Kb (Human Serotonin 5-HT6R; [6]): 112 nM; Ki (D2R [1]; Ki D2, Figure 8): 124 nM; Metabolic Pathway, metabolite M1 [3]: hydroxylation hydroxylation; Metabolic Pathway, metabolite M2 [3]: hydroxylation hydroxylation; Papp at 5 h, 200 µM (in vitro): 8.34 ± 1.33 ×10⁻⁶ cm/s; effect on CYP3A4 activity (CYP3A4): only slightly inhibited; HepG2 cell viability (HepG2 cell line): ~ 80 % of the control; effect on HepG2 proliferation in words (HepG2 cell line): slight antiproliferative effect; permeability in words [4]: medium permeability coefficients; Kb (D2R [2]; [7]): 290 nM; Ki (5-HT6R; Ki 5-HT6, Figure 8): 90 nM
15 | Fc1cccc2c(CNCCc3c[nH]c4ccccc34)c[nH]c12 [Compound 16] | 1230 nM |  | 5620 nM | 12900 nM | 316 nM | 
16 | Clc1cccc2c(CNCCc3c[nH]c4ccccc34)c[nH]c12 [Compound 17] | 3890 nM | 51.3 nM | 282 nM | 1070 nM | 363 nM | Kb (Human Serotonin 5-HT6R; [6]): 234 nM; Ki (D2R [1]; Ki D2, Figure 8): 51 nM; Metabolic Pathway, metabolite M1 [3]: hydroxylation hydroxylation; Metabolic Pathway, metabolite M2 [3]: hydroxylation hydroxylation; Papp at 5 h, 200 µM (in vitro): 8.42 ± 0.27 ×10⁻⁶ cm/s; effect on CYP3A4 activity (CYP3A4): only slightly inhibited; HepG2 cell viability (HepG2 cell line): ~ 80 % of the control; effect on HepG2 proliferation in words (HepG2 cell line): slight antiproliferative effect; permeability in words [4]: medium permeability coefficients; Kb (D2R [2]; [7]): 215 nM
17 | c1ccc(COc2cccc3c(CNCCc4c[nH]c5ccccc45)c[nH]c23)cc1 [Compound 19] | 2290 nM | 4070 nM | 741 nM | 11200 nM | 302 nM | Ki (5-HT6R; Ki 5-HT6, Figure 8): 303 nM
18 | COc1ccc2[nH]cc(CCNCc3c[nH]c4c(Cl)cccc34)c2c1 [Compound 20] | 309 nM | 2340 nM |  | 295 nM | 97.7 nM | Ki (5-HT1AR): 79.4 nM
19 | COc1ccc2[nH]cc(CCNCc3c[nH]c4cc(Cl)ccc34)c2c1 [Compound 21] | 174 nM | 1550 nM | 186 nM | 813 nM | 52.5 nM | 
20 | Clc1ccc2c(CCNCc3c[nH]c4c(Cl)cccc34)c[nH]c2c1 [Compound 22] | 4070 nM | 5010 nM | 5620 nM | 13200 nM | 363 nM | 
21 | CCn1cc(C(=O)O)c(=O)c2cc(F)c(N3CCNCC3)cc21 [Norfloxacin, norfloxacin, reference compound] |  |  |  |  |  | PAMPA Pe ± SD ([4]; 5 h, 200 µM, pH 7.4): 0.56 10^−6 cm/s
